Measurements from patent publication US20110105436A1, “HETEROARYL COMPOUNDS, COMPOSITIONS, AND METHODS OF USE IN CANCER TREATMENT” (AUCKLAND UNISERVICES LIMITED, priority 2008, published 2011).

Legend:
RCC4 cells = experiment: XTT assay in VHL-deficient RCC4 cells; assay type: cell-based; settings: Homo sapiens, 96 h, XTT assay, VHL-deficient RCC4 cells, four days
Protocol: (§1) Cell Viability and XTT assays. For cell viability, 100,000 cells were plated in a 12-well plate. The following day, 1.25 μM STF-62247 was added in the presence or absence of 1 mM 3-MA for 24 hours at 37° C. Cells were trypsinized and counted by trypan blue exclusion. For XTT assays, 5000 RCC4 with and without VHL cells or 2,500 SN12C with and without VHL shRNA cells were plated in 96-well plates. The following day, vehicle (DMSO), STF-62247 or each of 19 analogs were added to media by serial dilution. Four days later, the media was aspirated and XTT solution containing 0.3 mg/ml of XTT (Sigma Chemical Co) in Phenol Red-free media, 20% FCS and 2.65 mg/ml N-methyl dibenzopyrazine methyl sulfate (PMS) was added to the cells and incubated at 37° C. for 1-2 hours. Metabolism of XTT was quantified by measuring the absorbance at 450 nm on a plate reader.

RCC4/VHL cells = experiment: XTT assay, RCC4/VHL versus RCC4 cells (selectivity ratio); assay type: cell-based; settings: selectivity ratio, IC50 in RCC4/VHL cells/IC50 in RCC4 cells
Protocol: as §1
A. RCC4 and RCC4/VHL were treated with 1.25 μM of each 19 analogs for 20 hours and the presence of vacuoles was examined under light microscopy. B. Western blot for LC3 after treatment with each compound. Tubulin was used as loading control. Ratio is the relative from the IC50 in RCC4/VHL cells/IC50 in RCC4 cells. C. Acidic vesicle organelles (AVO) measured by FACS analysis in cells treated with 1.25 μM of STF-62247 or with compounds 21, 15, 25, 47, and 53 and stained with acridine orange.

SMILES | IC50 (RCC4 cells; Table 1) [µM] | Ratio (RCC4/VHL cells; Table 1) | IC50 (RCC4 cells; Table 2) [µM] | Ratio (RCC4/VHL cells; Table 2)
c1cc(-c2csc(Nc3ccc4c(c3)CCC4)n2)ccn1 [Compound 47, N-(2,3-Dihydro-1H-inden-5-yl)-4-(4-pyridinyl)-1,3-thiazol-2-amine] | 2 | 10 | – | –
CN(C)CCc1ccc(Nc2nc(-c3ccncc3)cs2)cc1 [Compound 36, N-{4-[2-(Dimethylamino)ethyl]phenyl}-4-(4-pyridinyl)-1,3-thiazol-2-amine] | 50 | 1.2 | – | –
Brc1cccc(Nc2nc(-c3ccncc3)cs2)c1 [Compound 123, N-(3-Bromophenyl)-4-(4-pyridinyl)-1,3-thiazol-2-amine] | 12.4 | >3.2 | – | –
CCc1cc(-c2csc(Nc3cccc(C)c3)n2)ccn1 [Compound 160, 4-(2-Ethyl-4-pyridinyl)-N-(3-methylphenyl)-1,3-thiazol-2-amine] | – | – | 6.4 | >6.3
Cc1cccc(Nc2nc(-c3ccncc3)c(CO)s2)c1 [Compound 74, [2-[(3-Methylphenyl)amino]-4-(4-pyridinyl)-1,3-thiazol-5-yl]methanol] | 7 | 2.4 | – | –
Cc1cccc(Nc2nc(-c3ccnc(F)c3)cs2)c1 [Compound 149, 4-(2-Fluoro-4-pyridinyl)-N-(3-methylphenyl)-1,3-thiazol-2-amine] | – | – | 4.5 | >8.9
Cc1ccc(Nc2nc(-c3ccncc3)cs2)cc1C [Compound 43, N-(3,4-Dimethylphenyl)-4-(4-pyridinyl)-1,3-thiazol-2-amine] | 6.5 | 6.4 | – | –
O=P(O)(O)Oc1cccc(Nc2nc(-c3ccncc3)cs2)c1 [Compound 39, 3-{[4-(4-Pyridinyl)-1,3-thiazol-2-yl]amino}phenyl Dihydrogen Phosphate] | 29 | 1.1 | – | –
Cc1ccc(Nc2nc(-c3ccncc3)c(CO)s2)cc1 [Compound 75, [2-[(4-Methylphenyl)amino]-4-(4-pyridinyl)-1,3-thiazol-5-yl]methanol] | 14 | 1.2 | – | –
c1ccc(Nc2nc(-c3ccncc3)cs2)cc1 [Compound 3, N-Phenyl-4-(4-pyridinyl)-1,3-thiazol-2-amine] | 7 | >10 | – | –
Cc1cccc(Nc2nc(-c3ccncc3C)cs2)c1 [Compound 166, N-(3-Methylphenyl)-4-(3-methyl-4-pyridinyl)-1,3-thiazol-2-amine] | – | – | 5.2 | >7.7
Cc1cccc(Nc2nc(-c3ccncc3)c(CCCO)s2)c1 [Compound 81, 3-[2-[(3-Methylphenyl)amino]-4-(4-pyridinyl)-1,3-thiazol-5-yl]-1-propanol] | 3.6 | 3.7 | – | –
Cc1cc(C)cc(Nc2nc(-c3ccncc3)cs2)c1 [Compound 45, N-(3,5-Dimethylphenyl)-4-(4-pyridinyl)-1,3-thiazol-2-amine] | 4.5 | >9 | – | –
COc1ccc(Nc2nc(-c3ccncc3)cs2)cc1 [Compound 27, N-(4-Methoxyphenyl)-4-(4-pyridinyl)-1,3-thiazol-2-amine] | 14 | 3.6 | – | –
Cc1cccc(Nc2nc(-c3ccncc3)c(C(N)=O)s2)c1 [Compound 91, 2-[(3-Methylphenyl)amino]-4-(4-pyridinyl)-1,3-thiazole-5-carboxamide] | 19.2 | >2.0 | – | –
CC(=O)c1ccc(Nc2nc(-c3ccncc3)cs2)cc1 [Compound 131, 1-(4-{[4-(4-Pyridinyl)-1,3-thiazol-2-yl]amino}phenyl)ethanone] | 3.8 | 3.1 | – | –
OCc1sc(Nc2ccc3c(c2)CCC3)nc1-c1ccncc1 [Compound 76, [2-(2,3-Dihydro-1H-inden-5-ylamino)-4-(4-pyridinyl)-1,3-thiazol-5-yl]methanol] | 6.8 | 1.4 | – | –
Clc1ccc(Nc2nc(-c3ccncc3)cs2)cc1 [Compound 31, N-(4-Chlorophenyl)-4-(4-pyridinyl)-1,3-thiazol-2-amine] | 38 | >2 | – | –
